Measured values taken from ChEMBL document CHEMBL4699558, “Lead optimization of 8-(methylamino)-2-oxo-1,2-dihydroquinolines as bacterial type II topoisomerase inhibitors” (Bioorg Med Chem, 2020).
Values after ≈ are worked out from the molar mass of the structure shown.

Columns and labels:
[1] = test system: Staphylococcus aureus; assay: Antibacterial activity against Methicillin-resistant Staphylococcus aureus by CLSI method; format: functional
[2] = test system: Escherichia coli; assay: Antibacterial activity against Escherichia coli ATCC 25922 by CLSI method; format: functional
[3] = test system: Enterococcus faecium; assay: Antibacterial activity against vancomycin-resistant Enterococcus faecium ATCC 51559 by CLSI method; format: functional
[4] = test system: Enterococcus faecalis; assay: Antibacterial activity against Enterococcus faecalis ATCC 29212 by CLSI method; format: functional
[5] = test system: Enterococcus faecalis; assay: Antibacterial activity against vancomycin-resistant Enterococcus faecalis ATCC 51575 by CLSI method; format: functional
[6] = test system: Streptococcus pneumoniae; assay: Antibacterial activity against Streptococcus pneumoniae ATCC 49619 by CLSI method; format: functional
[7] = test system: Streptococcus anginosus; assay: Antibacterial activity against Streptococcus anginosus ATCC 33397 by CLSI method; format: functional
[8] = test system: Enterococcus; assay: Antibacterial activity against Vancomycin-resistant Enterococcus by CLSI method; format: functional
[9] = test system: Streptococcus pneumoniae; assay: Antibacterial activity against genotype penicillin-resistant Streptococcus pneumoniae by CLSI method; format: functional
[10] = target: DNA gyrase (Escherichia coli, UniProt P0AES4+P0AES6); assay: Inhibition of Escherichia coli DNA gyrase by measuring supercoiling activity incubated for 60 mins by fluorescence based assay; format: protein-complex assay
[11] = Inhibition of Escherichia coli topoisomerase IV by measuring relaxation activity incubated for 30 mins by fluorescence based assay
[12] = test system: Escherichia coli; assay: Antibacterial activity against Escherichia coli ATCC 25922 in presence of PAbetaN by CLSI method; format: functional
[13] = test system: Enterococcus faecium; assay: Antibacterial activity against Enterococcus faecium ATCC 35667 by CLSI method; format: functional
[14] = test system: Haemophilus influenzae; assay: Antibacterial activity against Haemophilus influenzae ATCC 43095 by CLSI method; format: functional
[15] = test system: Escherichia coli; assay: Antibacterial activity against Escherichia coli ATCC 25922 assessed as reduction in bacterial cell growth incubated for 18 hrs by CSLI based broth microdilution method; format: functional
[16] = test system: Staphylococcus aureus; assay: Antibacterial activity against Staphylococcus aureus ATCC 29213 assessed as reduction in bacterial cell growth incubated for 18 hrs by CSLI based broth microdilution method; format: functional
[17] = target: T1, Cytoplasmic tyrosine-protein kinase BMX (Homo sapiens) (UniProt P51813); assay: Inhibition of recombinant BMX (unknown origin) at 10 uM using fluorescence-labeled peptide as substrate incubated for 15 mins followed by substrate addition and measured after 90 mins by electrophoretic mobility assay relative to control; conditions: time 105.0 min
T1 sequence (whole entry): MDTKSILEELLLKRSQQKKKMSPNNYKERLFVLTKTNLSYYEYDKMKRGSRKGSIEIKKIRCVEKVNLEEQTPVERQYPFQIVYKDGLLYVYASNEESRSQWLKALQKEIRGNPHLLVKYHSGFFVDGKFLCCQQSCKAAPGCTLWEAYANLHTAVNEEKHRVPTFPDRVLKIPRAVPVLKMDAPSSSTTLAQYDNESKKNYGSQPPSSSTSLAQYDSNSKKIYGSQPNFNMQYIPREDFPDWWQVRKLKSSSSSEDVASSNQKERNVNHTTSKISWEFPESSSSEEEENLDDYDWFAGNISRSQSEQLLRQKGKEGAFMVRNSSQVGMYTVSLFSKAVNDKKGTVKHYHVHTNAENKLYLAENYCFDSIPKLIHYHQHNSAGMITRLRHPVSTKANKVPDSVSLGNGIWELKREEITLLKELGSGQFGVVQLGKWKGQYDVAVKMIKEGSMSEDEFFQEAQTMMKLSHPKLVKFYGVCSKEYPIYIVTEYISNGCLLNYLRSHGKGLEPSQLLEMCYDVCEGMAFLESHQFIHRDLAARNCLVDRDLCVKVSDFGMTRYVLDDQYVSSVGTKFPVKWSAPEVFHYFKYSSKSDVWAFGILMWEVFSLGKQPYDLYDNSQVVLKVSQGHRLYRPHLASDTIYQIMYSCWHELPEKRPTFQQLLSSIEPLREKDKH

[18] = test system: Staphylococcus aureus; assay: Antibacterial activity against hospital-acquired Methicillin -resistant Staphylococcus aureus ATCC BAA-811 by CLSI method; format: functional
[19] = test system: Staphylococcus aureus; assay: Antibacterial activity against community-acquired Methicillin -resistant Staphylococcus aureus ATCC BAA-1556 by CLSI method; format: functional
[20] = test system: Staphylococcus aureus; assay: Antibacterial activity against Staphylococcus aureus ATCC 29213 by CLSI method; format: functional
[21] = target: DNA topoisomerase 2-alpha (Homo sapiens, UniProt P11388); assay: Inhibition of human topoisomerase 2alpha; format: ADME
Sequence of DNA topoisomerase 2-alpha (P11388 whole entry): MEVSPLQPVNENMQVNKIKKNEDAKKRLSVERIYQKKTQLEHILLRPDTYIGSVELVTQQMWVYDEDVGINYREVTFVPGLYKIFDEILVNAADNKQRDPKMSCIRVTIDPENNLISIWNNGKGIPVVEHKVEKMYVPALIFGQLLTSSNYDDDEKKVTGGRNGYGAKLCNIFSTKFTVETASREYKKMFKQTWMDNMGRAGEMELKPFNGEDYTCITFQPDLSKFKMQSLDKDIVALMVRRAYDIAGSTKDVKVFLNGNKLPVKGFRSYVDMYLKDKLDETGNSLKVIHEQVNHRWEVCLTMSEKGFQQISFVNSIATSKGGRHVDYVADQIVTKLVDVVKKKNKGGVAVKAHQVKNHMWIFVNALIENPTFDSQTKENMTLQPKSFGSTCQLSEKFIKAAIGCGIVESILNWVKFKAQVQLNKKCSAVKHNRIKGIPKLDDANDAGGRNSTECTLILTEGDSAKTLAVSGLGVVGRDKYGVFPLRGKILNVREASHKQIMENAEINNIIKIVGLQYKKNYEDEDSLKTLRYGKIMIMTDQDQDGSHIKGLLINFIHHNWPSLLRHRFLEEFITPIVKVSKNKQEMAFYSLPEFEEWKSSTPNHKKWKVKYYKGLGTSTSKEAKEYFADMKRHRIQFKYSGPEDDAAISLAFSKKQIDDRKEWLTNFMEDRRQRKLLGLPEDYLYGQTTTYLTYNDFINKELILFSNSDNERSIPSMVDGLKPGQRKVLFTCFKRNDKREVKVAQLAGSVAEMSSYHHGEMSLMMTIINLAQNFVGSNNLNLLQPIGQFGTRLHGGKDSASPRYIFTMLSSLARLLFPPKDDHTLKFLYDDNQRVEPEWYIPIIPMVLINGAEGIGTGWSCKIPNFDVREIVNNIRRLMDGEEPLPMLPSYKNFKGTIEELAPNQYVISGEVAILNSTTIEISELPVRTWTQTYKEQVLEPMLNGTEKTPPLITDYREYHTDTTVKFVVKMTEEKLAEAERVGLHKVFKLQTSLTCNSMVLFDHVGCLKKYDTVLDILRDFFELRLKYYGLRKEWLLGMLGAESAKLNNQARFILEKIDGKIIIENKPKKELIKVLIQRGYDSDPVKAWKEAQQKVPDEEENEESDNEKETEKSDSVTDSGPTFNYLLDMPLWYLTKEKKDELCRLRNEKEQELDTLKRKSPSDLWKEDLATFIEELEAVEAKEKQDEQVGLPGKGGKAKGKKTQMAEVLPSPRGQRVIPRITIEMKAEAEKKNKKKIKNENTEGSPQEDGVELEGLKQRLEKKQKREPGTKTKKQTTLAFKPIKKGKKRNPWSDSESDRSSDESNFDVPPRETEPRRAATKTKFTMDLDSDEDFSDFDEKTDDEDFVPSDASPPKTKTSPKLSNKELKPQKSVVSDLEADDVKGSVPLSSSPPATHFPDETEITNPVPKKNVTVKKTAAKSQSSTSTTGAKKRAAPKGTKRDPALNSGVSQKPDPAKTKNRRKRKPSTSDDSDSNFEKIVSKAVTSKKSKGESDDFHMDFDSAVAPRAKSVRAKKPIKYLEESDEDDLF

[22] = target: Voltage-gated inwardly rectifying potassium channel KCNH2 (Homo sapiens, UniProt Q12809); assay: Inhibition of human ERG expressed in CHO cells by Q-patch clamp assay
Sequence of Voltage-gated inwardly rectifying potassium channel KCNH2 (Q12809 whole entry): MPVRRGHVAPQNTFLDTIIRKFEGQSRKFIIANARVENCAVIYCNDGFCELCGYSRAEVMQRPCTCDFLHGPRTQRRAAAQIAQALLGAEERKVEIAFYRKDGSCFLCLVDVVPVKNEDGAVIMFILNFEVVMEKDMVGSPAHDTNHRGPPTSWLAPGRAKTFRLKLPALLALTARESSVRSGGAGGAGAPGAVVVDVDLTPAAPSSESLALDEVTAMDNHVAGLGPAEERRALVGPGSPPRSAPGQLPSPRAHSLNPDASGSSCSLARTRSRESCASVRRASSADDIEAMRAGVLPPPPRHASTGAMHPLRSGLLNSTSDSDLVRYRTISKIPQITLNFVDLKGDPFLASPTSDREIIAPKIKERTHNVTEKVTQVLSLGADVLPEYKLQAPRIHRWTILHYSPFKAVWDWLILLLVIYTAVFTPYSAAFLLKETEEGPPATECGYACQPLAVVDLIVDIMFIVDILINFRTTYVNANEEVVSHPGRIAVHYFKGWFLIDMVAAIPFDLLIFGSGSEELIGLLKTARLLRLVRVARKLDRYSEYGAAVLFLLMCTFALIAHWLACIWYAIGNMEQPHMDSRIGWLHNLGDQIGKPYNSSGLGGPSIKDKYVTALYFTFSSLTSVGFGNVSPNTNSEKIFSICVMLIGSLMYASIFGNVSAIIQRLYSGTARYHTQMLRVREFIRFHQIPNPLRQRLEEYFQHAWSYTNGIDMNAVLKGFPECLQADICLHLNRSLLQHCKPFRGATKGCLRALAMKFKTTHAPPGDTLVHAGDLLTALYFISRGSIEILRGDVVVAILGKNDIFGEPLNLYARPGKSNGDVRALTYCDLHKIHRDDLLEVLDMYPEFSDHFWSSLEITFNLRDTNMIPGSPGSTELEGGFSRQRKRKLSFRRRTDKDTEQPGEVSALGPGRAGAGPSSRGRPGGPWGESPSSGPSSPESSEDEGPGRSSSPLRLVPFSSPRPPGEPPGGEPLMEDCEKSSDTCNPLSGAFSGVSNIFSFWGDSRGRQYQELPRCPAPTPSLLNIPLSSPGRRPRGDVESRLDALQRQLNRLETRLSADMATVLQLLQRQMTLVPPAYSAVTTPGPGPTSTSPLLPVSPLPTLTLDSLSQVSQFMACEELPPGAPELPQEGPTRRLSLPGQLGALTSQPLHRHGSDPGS

[23] = Cytotoxicity against human HepG2 cells assessed as reduction in cell viability at 10 uM incubated for 48 hrs by CCK-8 assay
[24] = Cytotoxicity against human HepG2 cells assessed as reduction in cell viability at 50 uM incubated for 48 hrs by CCK-8 assay
[25] = test system: Clostridioides difficile; assay: Antibacterial activity against Clostridioides difficile ATCC 700057 by CLSI method; format: functional
[26] = test system: Peptostreptococcus anaerobius; assay: Antibacterial activity against Peptostreptococcus anaerobius ATCC 27337 by CLSI method; format: functional
[27] = test system: Bacteroides fragilis; assay: Antibacterial activity against Bacteroides fragilis ATCC 25285 by CLSI method; format: functional
[28] = test system: Prevotella melaninogenica; assay: Antibacterial activity against Prevotella melaninogenica JCM6325 by CLSI method; format: functional
[29] = test system: Porphyromonas gingivalis; assay: Antibacterial activity against Porphyromonas gingivalis JCM8525 by CLSI method; format: functional
[30] = test system: Fusobacterium nucleatum; assay: Antibacterial activity against Fusobacterium nucleatum JCM8532 by CLSI method; format: functional
[31] = Cmax in ICR mouse at 100 mg/kg, sc measured upto 24 hrs by LC-MS analysis; format: ADME, organism-based; parameters: route subcutaneous, dose 100 mg/kg, time 24 hrs; conditions: in vivo
[32] = Tmax in ICR mouse at 100 mg/kg, sc measured upto 24 hrs by LC-MS analysis; format: ADME, organism-based; conditions: in vivo
[33] = Half life in ICR mouse at 100 mg/kg, sc measured upto 24 hrs by LC-MS analysis; format: ADME, organism-based; conditions: in vivo
[34] = AUC (0 to 24 hrs) in ICR mouse at 100 mg/kg, sc measured upto 24 hrs by LC-MS analysis; format: ADME, organism-based; parameters: route subcutaneous, dose 100 mg/kg, time 24 hrs; conditions: in vivo

SMILES: CN[C@H](CC(C)C)C(=O)N[C@H]1C(=O)N[C@@H](CC(N)=O)C(=O)N[C@H]2C(=O)N[C@H]3C(=O)N[C@H](C(=O)N[C@H](C(=O)O)c4cc(O)cc(O)c4-c4cc3ccc4O)[C@H](O)c3ccc(c(Cl)c3)Oc3cc2cc(c3O[C@@H]2O[C@H](CO)[C@@H](O)[C@H](O)[C@H]2O[C@H]2C[C@](C)(N)[C@H](O)[C@H](C)O2)Oc2ccc(cc2Cl)[C@H]1O [VANCOMYCIN]
- MIC50 [1]: 1 µg/mL (≈ 0.69 µM)
- MIC90 [1]: 2 µg/mL (≈ 1.38 µM)
- MIC [2]: > 128 µg/mL
- MIC [3]: > 128 µg/mL
- MIC [4]: 2 µg/mL (≈ 1.38 µM)
- MIC [5]: > 128 µg/mL
- MIC [6]: 0.25 µg/mL (≈ 0.173 µM)
- MIC [7]: 0.5 µg/mL (≈ 0.345 µM)
- MIC50 [8]: > 128 µg/mL
- MIC90 [8]: > 128 µg/mL
- MIC50 [9]: 0.25 µg/mL (≈ 0.173 µM)
- MIC90 [9]: 0.5 µg/mL (≈ 0.345 µM)

SMILES: CNc1cc(F)cc2c(O)c(C(=O)Nc3ccc(C(=O)O)cc3CN3CCCCC3)c(=O)[nH]c12.O=C(O)C(F)(F)F
- IC50 [10]: 7.53 nM
- IC50 [11]: 4930 nM
- MIC [2]: 8 µg/mL
- MIC [12]: ≤ 0.015 µg/mL
- MIC [13]: 1 µg/mL
- MIC [4]: 0.12 µg/mL
- MIC [6]: 0.5 µg/mL
- MIC [7]: 0.5 µg/mL
- MIC [14]: 0.12 µg/mL

SMILES: CO[C@@H]1[C@@H](OC(N)=O)[C@@H](O)[C@H](Oc2ccc3c(O)c(NC(=O)c4ccc(O)c(CC=C(C)C)c4)c(=O)oc3c2C)OC1(C)C [NOVOBIOCIN]
- MIC [15]: 64 µg/mL (≈ 104 µM)
- MIC [16]: 0.13 µg/mL (≈ 0.212 µM)

SMILES: CNc1cc(F)cc2c(O)c(C(=O)Nc3ccc(C(=O)O)cc3)c(=O)[nH]c12
- inhibition [17]: 29%
- MIC50 [1]: 0.25 µg/mL (≈ 0.673 µM)
- MIC90 [1]: 0.25 µg/mL (≈ 0.673 µM)
- MIC [18]: 0.5 µg/mL (≈ 1.35 µM)
- MIC [19]: 0.25 µg/mL (≈ 0.673 µM)
- IC50 [10]: 1.1 nM
- IC50 [11]: 62.9 nM
- MIC [2]: 1 µg/mL (≈ 2.69 µM)
- MIC [20]: 0.25 µg/mL (≈ 0.673 µM)
- MIC [13]: 0.008 µg/mL (≈ 0.0215 µM)
- MIC [3]: 0.015 µg/mL (≈ 0.0404 µM)
- MIC [4]: 0.002 µg/mL (≈ 0.00539 µM)
- MIC [5]: 0.002 µg/mL (≈ 0.00539 µM)
- MIC [6]: 0.015 µg/mL (≈ 0.0404 µM)
- MIC [7]: 0.03 µg/mL (≈ 0.0808 µM)
- MIC [14]: ≤ 0.015 µg/mL
- IC50 [21]: > 100000 nM
- IC50 [22]: > 30000 nM
- cytotoxicity at 48 h, 10 µM ([23]; HepG2 cells): 7.93%
- cytotoxicity at 48 h, 50 µM ([24]; HepG2 cells): 25.2%
- MIC [25]: 0.25 µg/mL (≈ 0.673 µM)
- MIC [26]: 0.06 µg/mL (≈ 0.162 µM)
- MIC [27]: 8 µg/mL (≈ 21.5 µM)
- MIC [28]: > 32 µg/mL
- MIC [29]: 0.25 µg/mL (≈ 0.673 µM)
- MIC [30]: 0.12 µg/mL (≈ 0.323 µM)
- MIC50 [8]: 0.008 µg/mL (≈ 0.0215 µM)
- MIC90 [8]: 0.015 µg/mL (≈ 0.0404 µM)
- MIC50 [9]: 0.03 µg/mL (≈ 0.0808 µM)
- MIC90 [9]: 0.06 µg/mL (≈ 0.162 µM)
- Cmax [31]: 12400 ng/mL
- Tmax [32]: 0.25 h
- half-life [33]: 6.79 h
- AUC(0-t) at 24 h [34]: 16000 ng·h/mL

SMILES: CN(C)c1cc(NC(=O)CNC(C)(C)C)c(O)c2c1C[C@H]1C[C@H]3[C@H](N(C)C)C(O)=C(C(N)=O)C(=O)[C@@]3(O)C(O)=C1C2=O [TIGECYCLINE]
- MIC [1]: 0.25 µg/mL (≈ 0.427 µM)
- MIC50 [1]: 0.25 µg/mL (≈ 0.427 µM)
- MIC90 [1]: 2 µg/mL (≈ 3.41 µM)
- MIC [18]: 0.25 µg/mL (≈ 0.427 µM)
- MIC [19]: 0.5 µg/mL (≈ 0.854 µM)
- MIC [2]: 0.25 µg/mL (≈ 0.427 µM)
- MIC [20]: 0.25 µg/mL (≈ 0.427 µM)
- MIC [13]: 0.06 µg/mL (≈ 0.102 µM)
- MIC [3]: 0.12 µg/mL (≈ 0.205 µM)
- MIC [4]: 0.12 µg/mL (≈ 0.205 µM)
- MIC [5]: 0.25 µg/mL (≈ 0.427 µM)
- MIC [6]: 0.06 µg/mL (≈ 0.102 µM)
- MIC [7]: 0.06 µg/mL (≈ 0.102 µM)
- MIC50 [8]: 0.25 µg/mL (≈ 0.427 µM)
- MIC90 [8]: 0.5 µg/mL (≈ 0.854 µM)

SMILES: CNc1cccc2cc(C(=O)Nc3ccc(C(=O)O)cc3)c(=O)[nH]c12
- IC50 [11]: 980 nM
- MIC [15]: 64 µg/mL (≈ 190 µM)
- MIC [16]: 16 µg/mL (≈ 47.4 µM)
- MIC [12]: < 0.03 µg/mL

SMILES: CCCCCN(CCCCC)Cc1cc(C(=O)O)ccc1NC(=O)c1cc2cc(F)cc(NC)c2[nH]c1=O
- MIC [18]: 0.5 µg/mL (≈ 0.953 µM)
- MIC [19]: 0.5 µg/mL (≈ 0.953 µM)
- IC50 [10]: 0.8 nM
- MIC [12]: ≤ 0.03 µg/mL
- MIC [20]: 0.06 µg/mL (≈ 0.114 µM)
- MIC [13]: 0.06 µg/mL (≈ 0.114 µM)
- MIC [4]: 0.015 µg/mL (≈ 0.0286 µM)
- MIC [5]: 0.015 µg/mL (≈ 0.0286 µM)
- MIC [6]: 0.015 µg/mL (≈ 0.0286 µM)
- MIC [14]: 0.25 µg/mL (≈ 0.477 µM)
- IC50 [21]: > 100000 nM
- cytotoxicity at 48 h, 10 µM ([23]; hepg2): 8.11%
- cytotoxicity at 48 h, 50 µM ([24]; hepg2): 46.7%
- MIC [26]: 0.12 µg/mL (≈ 0.229 µM)
- MIC [27]: > 32 µg/mL
- MIC [29]: 0.12 µg/mL (≈ 0.229 µM)
- MIC [30]: 1 µg/mL (≈ 1.91 µM)
